Test results taken from patent US20070208087A1, “Compounds, compositions and methods for the treatment of inflammatory diseases” (priority 2001, published 2007).
“And” between values parts separate entries of the source, which are not always exact repeats. Equal entries are not always repeated. Where two headings read alike, the source gives them in different places.

Experiments:
[1] = system: TNF-α release from microglia; test: TNF-α release from LPS/IFNγ stimulated microglia, TNF-α ELISA (Example 11); assay type: cell-based; conditions: 50 uM compound, TNF-α release, 10 ug LPS and 10 ng IFNγ, 24 hours; for % inhibition: individual replicates, 50 µM; for inhibition at 50 µM: Microglia, 24 h, read-out: Avg % Inhibition
Procedure, shortened: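 Microglia pretreated 1 h with 50 μM bis-/tris-dihydroxyaryl compound, then stimulated with 10 μg/ml LPS + 10 ng/ml IFNγ for 24 h. Medium sampled, stored at −80°, diluted 1:50 and TNF-α measured by ELISA.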

[2] = system: EOC 13.31 microglial cells; test: NO release inhibition screen in LPS/IFNγ stimulated microglia, Griess reaction at 48 hours (Example 7); assay type: cell-based; conditions: for inhibition at 50 µM: Microglia, 48 h
Procedure, shortened: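 EOC 13.31 microglia, confluent at 24 h, stimulated with 10 μg/ml LPS plus 10 ng/ml IFNγ in presence of 50 uM test compound. Nitric oxide release quantified by Griess reaction at 48 hours.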

Row | SMILES | % inhibition [1] | inhibition at 50 µM [1] | μM NO release Avg ([2]; 50 uM + 10 μg/ml LPS/10 ng/ml IFNγ, 48 hours) | % inhibition ([2]; 50 uM + 10 μg/ml LPS/10 ng/ml IFNγ, 48 hours, single replicates, 50 µM) | inhibition of NO release, in words ([2]; 50 uM, LPS/IFNγ stimulated microglia) | inhibition at 50 µM ([2]; 50 uM + 10 μg/ml LPS/10 ng/ml IFNγ, 48 hours, read-out: Avg. % Inhibition) | inhibition at 50 µM ([2]; 50 uM + 10 μg/ml LPS/10 ng/ml IFNγ, 48 hours, single replicates, read-out: % inhibition)
1 | O=C(N[C@@H]1CCCC[C@H]1NC(=O)c1ccc(O)c(O)c1)c1ccc(O)c(O)c1 (relative stereo) [Compound 26, N,N′-bis(3,4-dihydroxybenzoyl)-trans-1,2-diaminocyclohexane] | −12.44% and −21.81% and −16.22% | -16.8% |  |  |  |  | 
2 | Oc1ccc(CNCc2ccc(O)c(O)c2)cc1O [Compound 73, bis(3,4-dihydroxybenzyl)amine] | −51.44% and −31.47% and −54.79% | -45.9% | 2.301 µM | 83.62% and 94.98% | effective inhibitors of NO release | 91.7% | 96.5%
